How the values were obtained:
[1] = refractive index (other wavelength) (dimensionless); xn = mol fraction of the nth substance listed; conditions: 100 kPa, Liquid, Wavelength=632.8 nm, Angle minimization by sell rotation
[2] = heat capacity at constant pressure per volume; xn = mol fraction of the nth substance listed; conditions: 100 kPa, Liquid, DSC Calorimetry, x1 = 0.244

CCCCCCCCCCCCC [tridecane] + COC(=O)OC
[1]
Conditions	refractive index
293.35 K, x1 = 0.073	1.3756
293.35 K, x1 = 0.57	1.4085
294.57 K, x1 = 0.078	1.3756
294.57 K, x1 = 0.553	1.4072
295.8 K, x1 = 0.084	1.3756
295.8 K, x1 = 0.532	1.4057
296.97 K, x1 = 0.091	1.3757
296.97 K, x1 = 0.511	1.4042
298.06 K, x1 = 0.099	1.376
298.06 K, x1 = 0.492	1.4028
299.12 K, x1 = 0.108	1.3764
299.12 K, x1 = 0.467	1.4011
299.84 K, x1 = 0.115	1.3767
299.84 K, x1 = 0.452	1.4
300.52 K, x1 = 0.124	1.3772
300.52 K, x1 = 0.432	1.3987
301.09 K, x1 = 0.132	1.3777
301.09 K, x1 = 0.415	1.3975
301.5 K, x1 = 0.141	1.3783
301.5 K, x1 = 0.398	1.3964
301.8 K, x1 = 0.147	1.3787
301.8 K, x1 = 0.386	1.3956
302.21 K, x1 = 0.158	1.3795
302.21 K, x1 = 0.365	1.3942
302.36 K, x1 = 0.165	1.38
302.36 K, x1 = 0.356	1.3936
302.48 K, x1 = 0.17	1.3804
302.48 K, x1 = 0.348	1.3931
302.56 K, x1 = 0.176	1.3808
302.56 K, x1 = 0.341	1.3926
302.63 K, x1 = 0.18	1.3811
302.63 K, x1 = 0.335	1.3922
302.7 K, x1 = 0.184	1.3814
302.7 K, x1 = 0.329	1.3918
302.79 K, x1 = 0.191	1.382
302.79 K, x1 = 0.317	1.391
302.83 K, x1 = 0.195	1.3823
302.83 K, x1 = 0.311	1.3906
302.86 K, x1 = 0.202	1.3828
302.86 K, x1 = 0.303	1.3901
302.89 K, x1 = 0.206	1.3831
302.89 K, x1 = 0.297	1.3897
302.91 K, x1 = 0.211	1.3835
302.91 K, x1 = 0.291	1.3893
302.92 K, x1 = 0.214	1.3837
302.92 K, x1 = 0.289	1.3891
302.93 K, x1 = 0.218	1.384
302.93 K, x1 = 0.284	1.3888
302.94 K, x1 = 0.223	1.3844
302.94 K, x1 = 0.226	1.3846
302.94 K, x1 = 0.275	1.3882
302.94 K, x1 = 0.278	1.3884
304.39 K, x1 = 0.097	1.3728
304.39 K, x1 = 0.196	1.3818
304.39 K, x1 = 0.297	1.389
304.39 K, x1 = 0.401	1.3953
304.39 K, x1 = 0.497	1.4002
304.39 K, x1 = 0.583	1.404
304.39 K, x1 = 0.71	1.4094
304.39 K, x1 = 0.795	1.4126
304.39 K, x1 = 0.899	1.4163

[2]
Conditions	heat capacity [J/K/m3]
303.5 K	2056000
303.6 K	2019000
303.7 K	1992000
303.8 K	1969000
303.9 K	1958000
304 K	1946000
304.2 K	1942000
304.6 K	1920000
305 K	1910000
306 K	1891000
307 K	1874000
308 K	1870000
309 K	1860000
310 K	1850000
311 K	1843000
312.1 K	1839000
313 K	1837000
315 K	1830000
316 K	1827000
317 K	1825000
318 K	1824000
319.01 K	1821000
320 K	1819000
321 K	1817000
322 K	1815000
323 K	1816000
324 K	1813000
325 K	1812000
326 K	1810000
327 K	1809000
328 K	1809000
329 K	1808000
330 K	1806000
331 K	1805000
332 K	1805000
333 K	1804000
334 K	1802000
335 K	1801000
336 K	1802000
337 K	1801000
338 K	1798000
339 K	1797000
340 K	1799000
341.01 K	1798000
342 K	1799000

From the NIST ThermoML archive (doi:10.1016/j.jct.2014.02.016)
